The numbers were not newly measured in US20110301091A1, “COMPOSITIONS AND METHODS FOR REDUCING THE SIGNS OF AGING OF THE SKIN” (priority 2008, published 2011), which cites them from elsewhere.

The test system of one data set is wrinkle formation. As to conditions: clinical study.
Data set [1] deals with UV-irradiated human fibroblasts.
The next data set deals with dermal aging. Particulars: animal studies; mechanism of reducing oxidative stress and apoptosis.
In data set [2] the test system is UV-induced ceramide production. Particulars: free radical scavenger.
Data set [3] relates to heparan-sulfate PGs (HS-PGs). As to conditions: organotypical model of corticosteroid atrophic human skin.
The test system of the next data set is photoaging. Particulars: topical application of folic acid and creatine.
A further data set has as its system photoaged skin. Particulars: topical application.
For a further data set, the system named is skin characteristics. As to conditions: in vivo.
For a further data set, the system named is MMP-1. Particulars: human keratinocytes; via ERK and AP-1 inhibition.

As for Ziyuglycoside, the “expression of type I collagen” value in the data set on type I collagen is “increased the expression of type I collagen in a dose-dependent manner”. Besides, the wrinkle formation result with wrinkle formation is “decrease wrinkle formation”.
For the molecule `COc1cc(O)c(C(=O)[C@@H]2[C@H](CC=C(C)C)C(C)=CC[C@H]2c2ccccc2)c(O)c1` [Panduratin A], in data set [1], the “matrix metalloproteinase (MMP) I synthesis” value was “decreased” and the “type I procollagen synthesis” value is on record as “increased”.
As for `COc1ccc2[nH]cc(CCNC(C)=O)c2c1` [melatonin], the dermal aging result in the data set on dermal aging is recorded as “slow down dermal aging”.
Take Vitamin E: in data set [2], the UV-induced ceramide production entry was “inhibited”.
As for C-Xyloside, in data set [3], the “expression of heparan-sulfate PGs (HS-PGs)” value is on record as “improved expression of heparan-sulfate PGs”.
Turning to `Oc1ccc(C=Cc2cc(O)cc(O)c2)cc1` [Resveratrol], the aging and lifespan result in the data set on laboratory animals is “slow down aging and extend the lifespan”.
For the molecule `Nc1nc2ncc(CNc3ccc(C(=O)N[C@@H](CCC(=O)O)C(=O)O)cc3)nc2c(=O)[nH]1` [folic acid], in the data set with photoaging, the photoaging result is “improved photoaging”.
With growth hormone, the dermal aging entry in the data set with dermal aging is given as “slow down dermal aging”.
For the molecule `CCCCCCCC(=O)C(CCCCCC)C(=O)NC(CO)CO` (stereo not drawn) [K6PC-5], the “skin barrier, fibroblast count and function” value in the data set on photoaged skin was “improving skin barrier and increasing fibroblast count and function”.
Turning to `C[C@]12CC[C@H](O)CC1=CC[C@@H]1[C@@H]2CC[C@]2(C)C(=O)CC[C@@H]12` [Dehydroepiandrosterone (DHEA), Dehydroepiandrosterone], in the data set with skin characteristics, the “effects on skin characteristics” value is given as “beneficial effects on skin characteristics”.
As to lunasin, the epigenetic patterns result in the data set with epigenetic patterns is recorded as “modify epigenetic patterns”.
Turning to `CN(CC(=O)O)C(=N)N` [creatine], the photoaging result in the data set with photoaging was “improved photoaging”.
Triphlorethol-A: the MMP-1 inhibition result with MMP-1 was “inhibition of MMP-1”.
